What was measured:
Experiment in all cases: Radiometric kinase panel
Type in all cases: biochemical
[1] = target: T1, KIT (Homo sapiens, UniProt P10721)
T1 construct: either as full-length or enzymatically active fragments; purchased ProQinase GmbH (Reaction Biology)
How it was run: (§1)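 Activity was measured radiometrically from [gamma-33P]-ATP incorporation into substrate. The kinases were recombinant human GST- or His-tagged proteins, full-length or active fragments, expressed in Sf9 or E. coli. Compound in 10% DMSO was added before the enzyme/substrate mix, which started the reaction.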

[2] = target: T2, TRKC (Homo sapiens, UniProt Q16288)
T2 construct: either as full-length or enzymatically active fragments; purchased ProQinase GmbH (Reaction Biology)
How it was run: as §1

[3] = target: T3, PAK1 (Homo sapiens, UniProt Q13153)
T3 construct: either as full-length or enzymatically active fragments; purchased ProQinase GmbH (Reaction Biology)
How it was run: as §1

[4] = target: T4, DAPK3 (Homo sapiens, UniProt O43293)
T4 construct: purchased ProQinase GmbH (Reaction Biology)
How it was run: as §1

[5] = target: T5, CAMK4 (Homo sapiens, UniProt Q16566)
T5 construct: either as full-length or enzymatically active fragments; purchased ProQinase GmbH (Reaction Biology)
How it was run: as §1

[6] = target: T6, AKT3 (Homo sapiens, UniProt Q9Y243)
T6 construct: purchased ProQinase GmbH (Reaction Biology)
How it was run: as §1

[7] = target: T7, TGFBR2 (Homo sapiens, UniProt P37173)
T7 construct: either as full-length or enzymatically active fragments; purchased ProQinase GmbH (Reaction Biology)
How it was run: as §1

[8] = target: T8, MEKK2 (Homo sapiens, UniProt Q9Y2U5)
T8 construct: either as full-length or enzymatically active fragments; purchased ProQinase GmbH (Reaction Biology)
How it was run: as §1

[9] = target: T9, NEK7 (Homo sapiens, UniProt Q8TDX7)
T9 construct: either as full-length or enzymatically active fragments; purchased ProQinase GmbH (Reaction Biology); host or cells: Sf9 insect cells or E. coli
How it was run: as §1

[10] = target: T10, FGFR3 (Homo sapiens, UniProt P22607)
T10 construct: either as full-length or enzymatically active fragments; purchased ProQinase GmbH (Reaction Biology); host or cells: Sf9 insect cells or E. coli
How it was run: as §1

[11] = target: T11, AXL (Homo sapiens, UniProt P30530)
T11 construct: either as full-length or enzymatically active fragments; purchased ProQinase GmbH (Reaction Biology)
How it was run: as §1

[12] = target: T12, CK2alpha1 (Homo sapiens, UniProt P68400)
T12 construct: either as full-length or enzymatically active fragments; purchased ProQinase GmbH (Reaction Biology)
How it was run: as §1

[13] = target: T13, BRAF (Homo sapiens, UniProt P15056)
T13 construct: purchased ProQinase GmbH (Reaction Biology)
How it was run: as §1

[14] = target: T14, FGR (Homo sapiens, UniProt P09769)
T14 construct: purchased ProQinase GmbH (Reaction Biology)
How it was run: as §1

[15] = target: T15, CAMK2A (Homo sapiens, UniProt Q9UQM7)
T15 construct: either as full-length or enzymatically active fragments; purchased ProQinase GmbH (Reaction Biology)
How it was run: as §1

[16] = target: T16, PKCiota (Homo sapiens, UniProt P41743)
T16 construct: either as full-length or enzymatically active fragments; purchased ProQinase GmbH (Reaction Biology)
How it was run: as §1

[17] = target: T17, DDR2 (Homo sapiens, UniProt Q16832)
T17 construct: either as full-length or enzymatically active fragments; purchased ProQinase GmbH (Reaction Biology)
How it was run: as §1

[18] = target: T18, AuroraA (Homo sapiens, UniProt O14965)
T18 construct: either as full-length or enzymatically active fragments; purchased ProQinase GmbH (Reaction Biology)
How it was run: as §1

[19] = target: T19, ZAK (Homo sapiens, UniProt Q9NYL2)
T19 construct: either as full-length or enzymatically active fragments; purchased ProQinase GmbH (Reaction Biology)
How it was run: as §1

[20] = target: T20, MET (Homo sapiens, UniProt P08581)
T20 construct: purchased ProQinase GmbH (Reaction Biology); host or cells: Sf9 insect cells or E. coli (not specified per kinase)
How it was run: as §1

[21] = target: T21, TTBK2 (Homo sapiens, UniProt Q6IQ55)
T21 construct: either as full-length or enzymatically active fragments; purchased ProQinase GmbH (Reaction Biology)
How it was run: as §1

[22] = target: T22, DNAPK (Homo sapiens, UniProt P78527)
T22 construct: purchased ProQinase GmbH (Reaction Biology); host or cells: Sf9 insect cells or E. coli (not specified per kinase)
How it was run: as §1

[23] = target: T23, DCAMKL2 (Homo sapiens, UniProt Q8N568)
T23 construct: purchased ProQinase GmbH (Reaction Biology); host or cells: Sf9 insect cells or E. coli (not specified per kinase)
How it was run: as §1

[24] = target: T24, BRSK2 (Homo sapiens, UniProt Q8IWQ3)
T24 construct: either as full-length or enzymatically active fragments; purchased ProQinase GmbH (Reaction Biology)
How it was run: as §1

[25] = target: T25, HIPK4 (Homo sapiens, UniProt Q8NE63)
T25 construct: either as full-length or enzymatically active fragments; purchased ProQinase GmbH (Reaction Biology); host or cells: Sf9 insect cells or E. coli
How it was run: as §1

[26] = target: T26, LRRK2 (Homo sapiens, UniProt Q5S007)
T26 construct: either as full-length or enzymatically active fragments; purchased ProQinase GmbH (Reaction Biology); host or cells: Sf9 insect cells or E. coli
How it was run: as §1

[27] = target: T27, CDK16/CycY (Homo sapiens, UniProt Q00536)
T27 construct: either as full-length or enzymatically active fragments; purchased ProQinase GmbH (Reaction Biology)
How it was run: as §1

[28] = target: T28, PDK1 (Homo sapiens, UniProt O15530)
T28 construct: either as full-length or enzymatically active fragments; purchased ProQinase GmbH (Reaction Biology)
How it was run: as §1

[29] = target: T29, MARK4 (Homo sapiens, UniProt Q96L34)
T29 construct: purchased ProQinase GmbH (Reaction Biology)
How it was run: as §1

[30] = target: T30, FRK (Homo sapiens, UniProt P42685)
T30 construct: either as full-length or enzymatically active fragments; purchased ProQinase GmbH (Reaction Biology)
How it was run: as §1

[31] = target: T31, GSK3alpha (Homo sapiens, UniProt P49840)
T31 construct: either as full-length or enzymatically active fragments; purchased ProQinase GmbH (Reaction Biology)
How it was run: as §1

[32] = target: T32, AKT1 (Homo sapiens, UniProt P31749)
T32 construct: either as full-length or enzymatically active fragments; purchased ProQinase GmbH (Reaction Biology)
How it was run: as §1

T9 sequence (Q8TDX7 whole entry, the tested form may be a part): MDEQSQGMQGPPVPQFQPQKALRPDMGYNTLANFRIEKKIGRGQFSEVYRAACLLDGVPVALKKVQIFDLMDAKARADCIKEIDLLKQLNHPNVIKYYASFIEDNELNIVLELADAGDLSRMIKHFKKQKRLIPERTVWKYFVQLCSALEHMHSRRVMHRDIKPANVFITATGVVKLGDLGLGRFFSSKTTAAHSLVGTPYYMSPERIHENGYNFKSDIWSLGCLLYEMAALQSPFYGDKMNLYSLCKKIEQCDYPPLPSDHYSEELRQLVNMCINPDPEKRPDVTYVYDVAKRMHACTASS
T17 sequence (Q16832 22-855): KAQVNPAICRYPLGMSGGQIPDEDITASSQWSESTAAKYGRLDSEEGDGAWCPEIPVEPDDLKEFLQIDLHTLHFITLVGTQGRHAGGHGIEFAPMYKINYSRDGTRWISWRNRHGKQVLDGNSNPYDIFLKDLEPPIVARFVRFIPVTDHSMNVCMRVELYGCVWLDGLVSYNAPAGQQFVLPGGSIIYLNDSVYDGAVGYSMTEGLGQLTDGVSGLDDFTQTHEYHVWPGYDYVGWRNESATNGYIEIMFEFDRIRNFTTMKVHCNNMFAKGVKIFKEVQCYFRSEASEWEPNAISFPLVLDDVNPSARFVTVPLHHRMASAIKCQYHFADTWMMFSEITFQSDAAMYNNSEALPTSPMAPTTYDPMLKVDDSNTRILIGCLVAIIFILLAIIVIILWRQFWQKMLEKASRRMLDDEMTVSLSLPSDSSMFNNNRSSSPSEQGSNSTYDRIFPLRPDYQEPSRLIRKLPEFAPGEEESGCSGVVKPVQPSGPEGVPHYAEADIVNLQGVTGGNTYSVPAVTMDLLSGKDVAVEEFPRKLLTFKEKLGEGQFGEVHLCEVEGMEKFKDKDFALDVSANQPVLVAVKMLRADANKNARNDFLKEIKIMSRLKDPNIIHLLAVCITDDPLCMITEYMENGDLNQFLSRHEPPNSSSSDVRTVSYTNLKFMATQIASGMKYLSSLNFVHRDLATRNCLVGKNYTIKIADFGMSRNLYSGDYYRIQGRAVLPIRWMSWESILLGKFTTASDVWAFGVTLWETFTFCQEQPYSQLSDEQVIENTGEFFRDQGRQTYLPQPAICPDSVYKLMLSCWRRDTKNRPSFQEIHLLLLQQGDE
T30 sequence (P42685 whole entry, the tested form may be a part): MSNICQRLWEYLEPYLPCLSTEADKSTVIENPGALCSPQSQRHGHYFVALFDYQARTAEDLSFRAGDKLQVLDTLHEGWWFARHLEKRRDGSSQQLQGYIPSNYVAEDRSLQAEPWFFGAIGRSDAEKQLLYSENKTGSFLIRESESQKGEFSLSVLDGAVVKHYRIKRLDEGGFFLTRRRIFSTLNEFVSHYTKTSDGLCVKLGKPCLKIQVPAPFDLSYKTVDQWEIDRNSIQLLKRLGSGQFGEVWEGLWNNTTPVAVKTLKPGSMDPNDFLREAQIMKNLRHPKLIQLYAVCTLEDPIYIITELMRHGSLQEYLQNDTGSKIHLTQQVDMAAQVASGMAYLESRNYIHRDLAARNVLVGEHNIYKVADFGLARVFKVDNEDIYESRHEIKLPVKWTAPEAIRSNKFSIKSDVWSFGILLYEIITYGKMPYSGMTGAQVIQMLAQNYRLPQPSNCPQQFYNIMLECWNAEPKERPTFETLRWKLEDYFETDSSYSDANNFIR
T27 sequence (Q00536 whole entry, the tested form may be a part): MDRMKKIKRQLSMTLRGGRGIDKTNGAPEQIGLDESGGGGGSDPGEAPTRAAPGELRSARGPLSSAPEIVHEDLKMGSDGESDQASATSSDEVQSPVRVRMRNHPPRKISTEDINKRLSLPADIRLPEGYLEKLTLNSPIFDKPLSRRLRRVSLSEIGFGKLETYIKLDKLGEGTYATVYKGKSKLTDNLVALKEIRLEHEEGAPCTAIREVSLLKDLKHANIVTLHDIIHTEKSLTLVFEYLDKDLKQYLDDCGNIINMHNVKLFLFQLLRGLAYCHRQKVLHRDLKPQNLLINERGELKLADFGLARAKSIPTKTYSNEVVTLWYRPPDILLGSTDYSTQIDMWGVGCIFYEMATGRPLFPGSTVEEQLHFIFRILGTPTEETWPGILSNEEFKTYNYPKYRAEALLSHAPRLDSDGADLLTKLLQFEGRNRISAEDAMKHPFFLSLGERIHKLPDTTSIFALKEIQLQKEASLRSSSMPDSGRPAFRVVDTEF
T27 sequence (Q8ND76 whole entry partner, the tested form may be a part): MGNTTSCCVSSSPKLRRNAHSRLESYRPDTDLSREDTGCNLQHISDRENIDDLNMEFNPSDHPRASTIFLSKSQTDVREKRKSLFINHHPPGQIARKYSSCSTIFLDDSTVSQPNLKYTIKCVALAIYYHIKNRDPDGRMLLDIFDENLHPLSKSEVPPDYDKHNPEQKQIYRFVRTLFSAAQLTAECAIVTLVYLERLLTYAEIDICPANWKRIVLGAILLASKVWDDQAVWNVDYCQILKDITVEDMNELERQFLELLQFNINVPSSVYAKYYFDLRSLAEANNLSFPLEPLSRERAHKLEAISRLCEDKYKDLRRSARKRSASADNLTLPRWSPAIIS
T23 sequence (Q8N568 whole entry): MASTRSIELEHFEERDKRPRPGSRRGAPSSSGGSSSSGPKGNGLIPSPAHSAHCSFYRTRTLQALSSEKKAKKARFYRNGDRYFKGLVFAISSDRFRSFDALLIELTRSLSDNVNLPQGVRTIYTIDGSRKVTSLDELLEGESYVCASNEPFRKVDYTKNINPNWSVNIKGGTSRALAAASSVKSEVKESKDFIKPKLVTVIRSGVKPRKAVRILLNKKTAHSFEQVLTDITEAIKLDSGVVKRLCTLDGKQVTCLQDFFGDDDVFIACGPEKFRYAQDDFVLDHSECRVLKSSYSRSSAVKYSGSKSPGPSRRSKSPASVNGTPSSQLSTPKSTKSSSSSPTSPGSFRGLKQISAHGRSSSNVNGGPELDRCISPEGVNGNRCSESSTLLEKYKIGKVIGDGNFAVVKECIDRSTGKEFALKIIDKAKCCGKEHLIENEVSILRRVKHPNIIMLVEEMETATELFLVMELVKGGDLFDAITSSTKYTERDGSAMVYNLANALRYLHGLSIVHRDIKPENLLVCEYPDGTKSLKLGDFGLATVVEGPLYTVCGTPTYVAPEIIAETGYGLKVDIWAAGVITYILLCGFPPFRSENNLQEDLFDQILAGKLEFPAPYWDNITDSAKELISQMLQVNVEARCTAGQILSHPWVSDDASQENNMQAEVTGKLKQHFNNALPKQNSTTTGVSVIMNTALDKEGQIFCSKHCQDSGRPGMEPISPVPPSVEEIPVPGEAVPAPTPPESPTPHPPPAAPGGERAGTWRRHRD
T11 sequence (P30530 26-894): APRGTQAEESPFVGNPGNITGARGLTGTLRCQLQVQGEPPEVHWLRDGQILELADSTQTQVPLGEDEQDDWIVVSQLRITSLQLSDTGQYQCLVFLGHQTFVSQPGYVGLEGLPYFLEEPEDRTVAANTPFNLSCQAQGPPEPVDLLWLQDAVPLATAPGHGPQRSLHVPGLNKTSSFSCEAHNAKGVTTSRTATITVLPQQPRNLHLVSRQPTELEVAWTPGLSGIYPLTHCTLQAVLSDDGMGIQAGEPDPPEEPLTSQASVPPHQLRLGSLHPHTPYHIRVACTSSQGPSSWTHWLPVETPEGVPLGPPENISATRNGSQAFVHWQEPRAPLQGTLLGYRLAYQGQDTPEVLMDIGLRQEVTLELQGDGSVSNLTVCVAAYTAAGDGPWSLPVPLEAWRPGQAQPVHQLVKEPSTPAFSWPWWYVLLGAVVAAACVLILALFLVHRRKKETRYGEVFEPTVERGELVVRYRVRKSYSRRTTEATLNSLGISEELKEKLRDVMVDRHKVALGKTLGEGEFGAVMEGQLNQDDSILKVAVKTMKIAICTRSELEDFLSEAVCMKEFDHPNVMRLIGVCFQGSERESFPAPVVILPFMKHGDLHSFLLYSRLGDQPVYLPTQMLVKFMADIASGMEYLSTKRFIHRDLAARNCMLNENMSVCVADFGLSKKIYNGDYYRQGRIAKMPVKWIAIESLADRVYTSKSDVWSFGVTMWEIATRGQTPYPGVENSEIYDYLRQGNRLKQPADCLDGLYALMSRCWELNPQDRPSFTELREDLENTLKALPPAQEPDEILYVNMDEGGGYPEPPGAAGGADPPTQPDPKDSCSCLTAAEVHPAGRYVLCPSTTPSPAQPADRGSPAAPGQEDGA
T12 sequence (P68400 whole entry, the tested form may be a part): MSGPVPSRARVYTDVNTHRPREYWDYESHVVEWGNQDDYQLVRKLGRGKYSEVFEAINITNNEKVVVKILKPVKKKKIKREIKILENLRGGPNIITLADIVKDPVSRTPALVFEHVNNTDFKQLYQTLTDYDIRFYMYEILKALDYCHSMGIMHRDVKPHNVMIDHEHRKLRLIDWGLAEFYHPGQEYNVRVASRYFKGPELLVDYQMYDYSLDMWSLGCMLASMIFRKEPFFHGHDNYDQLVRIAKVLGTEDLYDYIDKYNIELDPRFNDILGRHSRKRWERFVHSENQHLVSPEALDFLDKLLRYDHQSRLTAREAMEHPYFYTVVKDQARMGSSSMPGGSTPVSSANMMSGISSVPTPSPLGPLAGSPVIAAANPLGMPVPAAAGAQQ
T15 sequence (Q9UQM7 whole entry, the tested form may be a part): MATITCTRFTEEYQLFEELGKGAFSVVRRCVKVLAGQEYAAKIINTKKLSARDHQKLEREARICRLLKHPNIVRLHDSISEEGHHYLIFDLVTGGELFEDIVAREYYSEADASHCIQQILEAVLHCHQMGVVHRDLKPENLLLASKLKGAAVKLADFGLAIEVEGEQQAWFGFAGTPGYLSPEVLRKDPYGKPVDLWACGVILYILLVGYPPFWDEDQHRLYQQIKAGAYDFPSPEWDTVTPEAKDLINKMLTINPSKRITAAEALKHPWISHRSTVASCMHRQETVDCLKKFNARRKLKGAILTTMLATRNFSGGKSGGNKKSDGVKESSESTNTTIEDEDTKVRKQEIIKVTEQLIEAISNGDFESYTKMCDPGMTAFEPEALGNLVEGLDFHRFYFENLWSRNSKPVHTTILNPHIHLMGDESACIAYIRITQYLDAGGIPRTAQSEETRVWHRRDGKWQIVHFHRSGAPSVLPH

C=CC(=O)Nc1ccc(C(=O)N2CC[C@@H](Nc3ncc(C#N)cn3)C2)cc1 [Compound 4, (R)-N-(4-(3-((5-cyanopyrimidin-2-yl)amino)pyrrolidine-1-carbonyl)phenyl)acrylamide]
inhibition at 1 µM [1]: -4%
inhibition at 1 µM [2]: -11%
inhibition at 1 µM [3]: -6%
inhibition at 1 µM [4]: 0%
inhibition at 1 µM [5]: 8%
inhibition at 1 µM [6]: -2%
inhibition at 1 µM [7]: 22%
inhibition at 1 µM [8]: 8%
inhibition at 1 µM [9]: -15%
inhibition at 1 µM [10]: -16%
inhibition at 1 µM [11]: 3%
inhibition at 1 µM [12]: -4%
inhibition at 1 µM [13]: 0%
inhibition at 1 µM [14]: -1%
inhibition at 1 µM [15]: -9%
inhibition at 1 µM [16]: -4%
inhibition at 1 µM [17]: -9%
inhibition at 1 µM [18]: 5%
inhibition at 1 µM [19]: -4%
inhibition at 1 µM [20]: 0%
inhibition at 1 µM [21]: 3%
inhibition at 1 µM [22]: 2%
inhibition at 1 µM [23]: 0%
inhibition at 1 µM [24]: -10%
inhibition at 1 µM [25]: 11%
inhibition at 1 µM [26]: -14%
inhibition at 1 µM [27]: 17%
inhibition at 1 µM [28]: -7%
inhibition at 1 µM [29]: -1%
inhibition at 1 µM [30]: -6%
inhibition at 1 µM [31]: 6%
inhibition at 1 µM [32]: 2%

— patent US20230074545A1, “TREATMENT OF CANCER WITH CDK12/13 INHIBITORS” (Kinnate Biopharma Inc., priority 2019, published 2023)
